ChEMBL document CHEMBL5579814, “Analogues of the pan-selectin antagonist rivipansel (GMI-1070)” (Eur J Med Chem, 2024)
pIC50, pKd: −log10 of the molar value.

Experiments:
E-selectin [1] = molecular target: T1, E-selectin (Homo sapiens, UniProt P16581); assay: Binding affinity to E-selectin SCR2 domain (unknown origin) by isothermal titration calorimetry
T1 sequence (P16581 whole entry): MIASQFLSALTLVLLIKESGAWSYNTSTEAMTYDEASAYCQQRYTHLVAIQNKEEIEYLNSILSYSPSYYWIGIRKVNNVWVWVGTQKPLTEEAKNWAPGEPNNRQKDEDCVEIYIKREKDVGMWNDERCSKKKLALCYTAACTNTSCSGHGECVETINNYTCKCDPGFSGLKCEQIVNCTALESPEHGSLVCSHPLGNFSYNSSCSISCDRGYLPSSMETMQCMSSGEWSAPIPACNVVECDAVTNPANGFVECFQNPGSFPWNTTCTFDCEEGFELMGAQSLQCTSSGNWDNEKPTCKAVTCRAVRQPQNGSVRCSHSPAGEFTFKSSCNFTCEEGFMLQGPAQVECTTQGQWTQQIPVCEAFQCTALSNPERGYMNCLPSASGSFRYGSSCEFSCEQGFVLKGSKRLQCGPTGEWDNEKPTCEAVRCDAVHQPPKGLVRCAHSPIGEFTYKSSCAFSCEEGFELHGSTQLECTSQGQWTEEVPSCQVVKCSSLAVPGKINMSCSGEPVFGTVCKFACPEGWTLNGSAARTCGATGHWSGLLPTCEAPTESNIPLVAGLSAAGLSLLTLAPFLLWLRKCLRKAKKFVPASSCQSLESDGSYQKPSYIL

[2] = Inhibition of horseradish peroxidase coupled sialyl Lewisa-polyacrylamide polymer binding to human P-selectin/IgG chimera measured after 2 hrs in presence of TMB by colorimetric assay
E-selectin [3] = molecular target: T1, E-selectin; assay: Binding affinity to sialyl LewisX mimetic 21a pretreated Blue-NHS-labelled E-selectin Lec-EGF/SCR1/SCR2 domain (unknown origin) measured after 20 mins by microscale thermophoresis

Structure (SMILES)	pKd (E-selectin [1])	pIC50 [2]	pKd (E-selectin [3])
C[C@@H]1O[C@@H](O[C@@H]2CCCC[C@H]2O[C@@H]2O[C@H](CO)[C@H](O)[C@H](O[C@@H](CC3CCCCC3)C(=O)O)[C@H]2O)[C@@H](O)[C@H](O)[C@@H]1O	4.22		
CC[C@H]1C(C(=O)NCCCc2cn(CCCC(=O)Nc3cc(S(=O)(=O)O)cc4cc(S(=O)(=O)O)cc(S(=O)(=O)O)c34)nn2)CC[C@@H](O[C@@H]2O[C@H](CO)[C@H](O)[C@H](O[C@@H](CC3CCCCC3)C(=O)O)[C@H]2OC(=O)c2ccccc2)[C@@H]1O[C@@H]1O[C@@H](C)[C@@H](O)[C@@H](O)[C@@H]1O (stereo partly drawn)		4.09	
C[C@@H]1O[C@@H](O[C@@H]2[C@@H](NC(=O)c3cc(=O)[nH]c(=O)[nH]3)C[C@@H](C(=O)NCCNC(=O)COCCOCC(=O)Nc3cc(S(=O)(=O)O)cc4cc(S(=O)(=O)O)cc(S(=O)(=O)O)c34)C[C@H]2O[C@@H]2O[C@H](CO)[C@H](O)[C@H](O[C@@H](CC3CCCCC3)C(=O)O)[C@H]2OC(=O)c2ccccc2)[C@@H](O)[C@H](O)[C@@H]1O [RIVIPANSEL]		3.37	

Now from value to compound:

pKd (E-selectin [1])	pIC50 [2]	pKd (E-selectin [3])	Structure (SMILES)
	2.47		COC(=O)[C@@H]1C[C@H](NC(=O)c2cc(=O)[nH]c(=O)[nH]2)[C@@H](O[C@@H]2O[C@@H](C)[C@@H](O)[C@@H](O)[C@@H]2O)[C@H](O[C@@H]2O[C@H](CO)[C@H](O)[C@H](O[C@@H](CC3CCCCC3)C(=O)O)[C@H]2OC(=O)c2ccccc2)C1
	4.03		CC[C@@H]1[C@@H](O[C@@H]2O[C@@H](C)[C@@H](O)[C@@H](O)[C@@H]2O)[C@H](O[C@@H]2O[C@H](CO)[C@H](O)[C@H](O[C@@H](CC3CCCCC3)C(=O)O)[C@H]2OC(=O)c2ccccc2)CC[C@@H]1C(=O)NCCCc1cn(CCC(=O)Nc2cc(S(=O)(=O)O)cc3cc(S(=O)(=O)O)cc(S(=O)(=O)O)c23)nn1
	≤ 2.15	3.13	CO[C@@H]1O[C@H](CO)[C@@H](O[C@@H]2O[C@H](CO)[C@H](O)[C@H](O[C@]3(C(=O)O)C[C@H](O)[C@@H](NC(C)=O)[C@H]([C@H](O)[C@H](O)CO)O3)[C@H]2O)[C@H](O[C@@H]2O[C@@H](C)[C@@H](O)[C@@H](O)[C@@H]2O)[C@H]1NC(C)=O
	3.68		CC[C@H]1C(C(=O)NCCCc2cn(CCCCC(=O)Nc3cc(S(=O)(=O)O)cc4cc(S(=O)(=O)O)cc(S(=O)(=O)O)c34)nn2)CC[C@@H](O[C@@H]2O[C@H](CO)[C@H](O)[C@H](O[C@@H](CC3CCCCC3)C(=O)O)[C@H]2OC(=O)c2ccccc2)[C@@H]1O[C@@H]1O[C@@H](C)[C@@H](O)[C@@H](O)[C@@H]1O (stereo partly drawn)
